Measurements published in article PMC7587356, “High-Throughput Screening for Inhibitors of the SARS-CoV-2 Protease Using a FRET-Biosensor” (Molecules, 2020).
Counter-ions that a name gives are not always drawn. Like-named read-outs stand apart in the source and are kept apart here.

Target: SARS-CoV-2 3CLpro (Severe acute respiratory syndrome coronavirus 2, UniProt P0DTD1)
Experiment: biochemical
Format: biochemical
Set-up: Replicate_1 / Replicate_2 / mean / mean (LOPAC_screen_w_protease): unit not given here
Conditions: for inhibition at 5 µM: 4 h
[1] = sheet LOPAC_screen_w_protease, LOPAC1280 primary screen at 5 µM, with protease, mean of the two replicates, read-out: mean
[2] = sheet LOPAC_screen_w_protease, LOPAC1280 primary screen at 5 µM, with protease, replicate 1, read-out: Replicate_1
[3] = sheet LOPAC_screen_w_protease, LOPAC1280 primary screen at 5 µM, with protease, replicate 2, read-out: Replicate_2
[4] = LOPAC1280 primary screen with protease, 5 µM compound, mean of the two replicates
[5] = sheet LOPAC_screen_w_protease, LOPAC1280 at 5 µM, mean of two replicates
[6] = sheet LOPAC_screen_w_protease, LOPAC1280 at 5 µM, replicate 1
[7] = sheet LOPAC_screen_w_protease, LOPAC1280 at 5 µM, replicate 2
[8] = sheet LOPAC_screen_w_protease, primary screen with protease, mean of two replicates
[9] = sheet LOPAC_screen_w_protease, primary screen with protease, replicate 1
[10] = sheet LOPAC_screen_w_protease, primary screen with protease, replicate 2
[11] = sheet LOPAC_screen_w_protease, primary screen with protease, 5 µM, mean of two replicates
[12] = sheet LOPAC_screen_w_protease, primary screen with protease, 5 µM, replicate 1
[13] = sheet LOPAC_screen_w_protease, primary screen with protease, 5 µM, replicate 2
[14] = sheet LOPAC_screen_w_protease, primary screen with protease, 5 µM, mean of two replicates, read-out: mean
[15] = sheet LOPAC_screen_w_protease, primary screen with protease, 5 µM, replicate 1, read-out: Replicate_1
[16] = sheet LOPAC_screen_w_protease, primary screen with protease, 5 µM, replicate 2, read-out: Replicate_2
[17] = LOPAC1280 primary screen with protease, 5 µM compound, replicate 1
[18] = LOPAC1280 primary screen with protease, 5 µM compound, replicate 2
[19] = LOPAC1280 primary screen with protease, 5 µM compound, mean of two replicates
[20] = sheet LOPAC_screen_w_protease, primary screen of LOPAC1280 at 5 µM with protease, mean of the two replicates
[21] = sheet LOPAC_screen_w_protease, primary screen of LOPAC1280 at 5 µM with protease, replicate 1
[22] = sheet LOPAC_screen_w_protease, primary screen of LOPAC1280 at 5 µM with protease, replicate 2

`N=C(N)NCCC[C@H](N)C(=O)O` [L-Arginine] was tested, and the inhibition at 5 µM [1] was 0.787%, the inhibition at 5 µM [2] was 3.1% and the inhibition at 5 µM [3] was -1.52%.

In the case of `CCC1(C)CC(=O)NC1=O` (stereo not drawn) [Ethosuximide], the inhibition at 5 µM (LOPAC1280 primary screen with protease, 5 µM compound, replicate 1, read-out: Replicate_1 (LOPAC_screen_w_protease)) is reported as 4.21%, the inhibition at 5 µM (LOPAC1280 primary screen with protease, 5 µM compound, replicate 2, read-out: Replicate_2 (LOPAC_screen_w_protease)) is reported as -0.21% and the “mean (LOPAC_screen_w_protease)” value [4] is reported as 1.998.

Molecule `Cl.NOCC(=O)O.NOCC(=O)O` has a mean [5] of 1.195, a Replicate_1 [6] of 1.0596 and a Replicate_2 [7] of 1.33.

For `N#CC(C#N)=C(N)/C(C#N)=C/c1ccc(O)cc1` [Tyrphostin AG 112], the mean [8] was 2.497, the Replicate_1 [9] was 2.949 and the Replicate_2 [10] was 2.046.

In the case of `Br.Br.NC(N)=NCCSSCCN=C(N)N` [Guanidinoethyl disulfide dihydrobromide], the “mean (LOPAC screen with protease)” value (sheet LOPAC_screen_w_protease, primary screen at 5 µM, mean of two replicates) is reported as 36.2152, the “Replicate_1 (LOPAC screen with protease)” value (sheet LOPAC_screen_w_protease, primary screen at 5 µM, replicate 1) is reported as 35.2116 and the “Replicate_2 (LOPAC screen with protease)” value (sheet LOPAC_screen_w_protease, primary screen at 5 µM, replicate 2) is reported as 37.2188.

For `O=c1ccn([C@@H]2O[C@H](COP(=O)([O-])OP(=O)([O-])O)[C@@H](O)[C@H]2O)c(=O)[nH]1.[Na+].[Na+]` [Uridine 5'-diphosphate sodium], the mean [11] was -0.3913, the Replicate_1 [12] was -1.155 and the Replicate_2 [13] was 0.3722.

Molecule `O=C(O)c1nn(Cc2ccc(Cl)cc2Cl)c2ccccc12` [Lonidamine] has an inhibition at 5 µM [14] of 0.331%, an inhibition at 5 µM [15] of 0.572% and an inhibition at 5 µM [16] of 0.0889%.

Work on `Cc1ccccc1N1C(=O)c2cc(S(N)(=O)=O)c(Cl)cc2NC1C` (stereo not drawn) [Metolazone] yielded an inhibition at 5 µM (sheet LOPAC_screen_w_protease, LOPAC1280 primary screen with protease, 5 µM compound, mean of the two replicates, read-out: mean) of 5.24%, an inhibition at 5 µM (sheet LOPAC_screen_w_protease, LOPAC1280 primary screen with protease, 5 µM compound, replicate 1, read-out: Replicate_1) of 4.55% and an inhibition at 5 µM (sheet LOPAC_screen_w_protease, LOPAC1280 primary screen with protease, 5 µM compound, replicate 2, read-out: Replicate_2) of 5.92%.

`CNCCC=C1c2ccccc2CCc2ccccc21` [Nortriptyline hydrochloride] gave an inhibition at 5 µM (read-out: Replicate_1) of 2.88%, an inhibition at 5 µM (read-out: Replicate_2) of 1.57% and an inhibition at 5 µM (read-out: mean) of 2.22%.

In the case of `COC(=O)C1=C(C)NC(C)=C(C(=O)OC)C1c1ccccc1[N+](=O)[O-]` [Nifedipine], the inhibition at 5 µM (sheet LOPAC_screen_w_protease, primary screen at 5 µM, mean of two replicates, read-out: mean (LOPAC screen with protease)) is reported as 14.6%, the inhibition at 5 µM (sheet LOPAC_screen_w_protease, primary screen at 5 µM, replicate 1, read-out: Replicate_1 (LOPAC screen with protease)) is reported as 13.8% and the inhibition at 5 µM (sheet LOPAC_screen_w_protease, primary screen at 5 µM, replicate 2, read-out: Replicate_2 (LOPAC screen with protease)) is reported as 15.5%.

Work on Picrotoxin yielded a mean (sheet LOPAC_screen_w_protease, LOPAC1280 primary screen with protease, 5 µM compound, mean of the two replicates) of 4.15, a Replicate_1 (sheet LOPAC_screen_w_protease, LOPAC1280 primary screen with protease, 5 µM compound, replicate 1) of 3.321 and a Replicate_2 (sheet LOPAC_screen_w_protease, LOPAC1280 primary screen with protease, 5 µM compound, replicate 2) of 4.978.

In the case of `CN(C(=O)Cc1ccc(Cl)c(Cl)c1)C(CN1CCCC1)c1cccc(OCC(=O)O)c1.Cl` (stereo not drawn) [ICI 204,448 hydrochloride], the “mean (LOPAC_screen_w_protease)” value [4] is reported as 1.925, the “Replicate_1 (LOPAC_screen_w_protease)” value [17] is reported as 3.897 and the “Replicate_2 (LOPAC_screen_w_protease)” value [18] is reported as -0.04714.

With `CCCN(CCC)[C@@H]1CCc2c(F)ccc(O)c2C1.Cl` [R(+)-UH-301 hydrochloride] the “mean (LOPAC_screen_w_protease)” value [19] was 1.335, the “Replicate_1 (LOPAC_screen_w_protease)” value [17] was 1.567 and the “Replicate_2 (LOPAC_screen_w_protease)” value [18] was 1.103.

`N[C@H](C(=O)O)c1cc(O)no1` (racemic) [(±)-Ibotenic acid] showed a mean (sheet LOPAC_screen_w_protease, LOPAC1280 primary screen at 5 µM, with protease, mean of the two replicates) of 0.7432, a Replicate_1 (sheet LOPAC_screen_w_protease, LOPAC1280 primary screen at 5 µM, with protease, replicate 1) of 1.025 and a Replicate_2 (sheet LOPAC_screen_w_protease, LOPAC1280 primary screen at 5 µM, with protease, replicate 2) of 0.4611.

Work on `Cl.Fc1ccc(CN(C2=NCCN2)c2c(Cl)cccc2Cl)cc1` [IMID-4F hydrochloride] yielded a mean [11] of -0.6347, a Replicate_1 [12] of -0.8698 and a Replicate_2 [13] of -0.3997.

Molecule `O=C(O)CCCCCCCC(=O)O` [Azelaic acid] has an inhibition at 5 µM [1] of 0.767%, an inhibition at 5 µM [2] of 1.56% and an inhibition at 5 µM [3] of -0.0221%.

`N.N.N.N.N.N.N.N.N.N.N.N.N.N.[Cl-].[Cl-].[Cl-].[Cl-].[Cl-].[Cl-].[O-2].[O-2].[Ru+3].[Ru+3].[Ru+4]` [Ruthenium red] was tested, and the “mean (LOPAC_screen_w_protease)” value [4] was 1.824, the “Replicate_1 (LOPAC_screen_w_protease)” value [17] was 2.607 and the “Replicate_2 (LOPAC_screen_w_protease)” value [18] was 1.042.

In the case of `COc1ccccc1N1CCN(CCCNc2cc(=O)n(C)c(=O)n2C)CC1` [Urapidil hydrochloride], the inhibition at 5 µM [14] is reported as -0.372%, the inhibition at 5 µM [15] is reported as 0.127% and the inhibition at 5 µM [16] is reported as -0.871%.

For `C[C@H]1C[C@H]2[C@@H]3CCC4=CC(=O)C=C[C@]4(C)[C@@]3(Cl)[C@@H](O)C[C@]2(C)[C@@]1(O)C(=O)CO` [Beclomethasone], the mean [11] was -0.1197, the Replicate_1 [12] was -0.1957 and the Replicate_2 [13] was -0.04382.

Work on `Nn1nnc2ccccc21` [1-Aminobenzotriazole] yielded a mean [5] of 1.253, a Replicate_1 [6] of 1.647 and a Replicate_2 [7] of 0.8595.

With `Cl.Clc1cc(I)cc(Cl)c1NC1=NCCN1` [p-Iodoclonidine hydrochloride] the mean [8] was 2.258, the Replicate_1 [9] was 3.3723 and the Replicate_2 [10] was 1.143.

For `COc1cc(C=C(C#N)C#N)cc(O)c1O` [Tyrphostin AG 34], the mean [20] was 3.625, the Replicate_1 [21] was 3.8503 and the Replicate_2 [22] was 3.4006.

Molecule `Cl.Cn1ccc2cc(NC(=O)Nc3cccnc3)ccc21` [SB 200646 hydrochloride] has a mean (sheet LOPAC_screen_w_protease, primary screen with protease, compound at 5 µM, mean of two replicates) of 2.882, a Replicate_1 (sheet LOPAC_screen_w_protease, primary screen with protease, compound at 5 µM, replicate 1) of 2.958 and a Replicate_2 (sheet LOPAC_screen_w_protease, primary screen with protease, compound at 5 µM, replicate 2) of 2.805.

`CN/C(=N\c1ccc(C2=NNC(=O)CC2C)cc1)NC#N` (stereo not drawn) [SKF 94836] gave an inhibition at 5 µM [1] of 0.836%, an inhibition at 5 µM [2] of 1.39% and an inhibition at 5 µM [3] of 0.284%.

In the case of `CCN1C[C@]2(C)CC[C@H](O)[C@]34C1[C@@H](C[C@H]23)[C@@]1(O)C[C@H](OC)[C@H]2C[C@@H]4[C@@H]1[C@H]2O` [Karakoline], the “mean (LOPAC_screen_w_protease)” value is reported as 1.99, the inhibition at 5 µM (read-out: Replicate_1 (LOPAC_screen_w_protease)) is reported as 1.52% and the inhibition at 5 µM (read-out: Replicate_2 (LOPAC_screen_w_protease)) is reported as 2.46%.

With `CC(=O)NCCc1c[nH]c2ccc(O)cc12` [N-Acetyl-5-hydroxytryptamine] the “mean (LOPAC_screen_w_protease)” value [19] was 1.513, the “Replicate_1 (LOPAC_screen_w_protease)” value [17] was 1.947 and the “Replicate_2 (LOPAC_screen_w_protease)” value [18] was 1.078.

In the case of `CC(C)[C@H](CO)Nc1nc(Nc2cccc(Cl)c2)c2ncn(C(C)C)c2n1` [Purvalanol A], the inhibition at 5 µM (sheet LOPAC_screen_w_protease, primary screen with protease, mean of two replicates, read-out: mean) is reported as 2.33%, the inhibition at 5 µM (sheet LOPAC_screen_w_protease, primary screen with protease, replicate 1, read-out: Replicate_1) is reported as 2.6% and the inhibition at 5 µM (sheet LOPAC_screen_w_protease, primary screen with protease, replicate 2, read-out: Replicate_2) is reported as 2.06%.

Molecule `COc1ccc(C2CNC(=O)C2)cc1OC1CCCC1` (stereo not drawn) [Rolipram] has an inhibition at 5 µM [14] of -0.575%, an inhibition at 5 µM [15] of -0.0105% and an inhibition at 5 µM [16] of -1.14%.

For `CCCn1cnc2c1c(=O)n(CCCCC(C)=O)c(=O)n2C` [Propentofylline], the inhibition at 5 µM (sheet LOPAC_screen_w_protease, LOPAC1280 at 5 µM, mean of two replicates, read-out: mean) was 1.26%, the inhibition at 5 µM (sheet LOPAC_screen_w_protease, LOPAC1280 at 5 µM, replicate 1, read-out: Replicate_1) was 2.2% and the inhibition at 5 µM (sheet LOPAC_screen_w_protease, LOPAC1280 at 5 µM, replicate 2, read-out: Replicate_2) was 0.327%.

For `CC(C)C[C@H]1C(=O)N2CCC[C@H]2[C@]2(O)O[C@](NC(=O)[C@@H]3C=C4c5cccc6[nH]c(Br)c(c56)C[C@H]4N(C)C3)(C(C)C)C(=O)N12.CS(=O)(=O)O` [(+)-Bromocriptine methanesulfonate], the “mean (LOPAC_screen_w_protease)” value [4] was 1.984, the “Replicate_1 (LOPAC_screen_w_protease)” value [17] was 2.405 and the “Replicate_2 (LOPAC_screen_w_protease)” value [18] was 1.562.

Molecule `Cl.c1ccc([C@H]2CN3CCSC3=N2)cc1` [(-)-Tetramisole hydrochloride] has a Replicate_1 of 0.0709, a Replicate_2 of 1.236 and a mean of 0.6536.

`Ic1ccccc1CNC1C2CCN(CC2)C1C(c1ccccc1)c1ccccc1.O=C(O)C(=O)O` [L-703,606 oxalate] was tested, and the mean [20] was 3.6584, the Replicate_1 [21] was 4.135 and the Replicate_2 [22] was 3.181.

For `CCCN1C[C@H](CSC)C[C@@H]2c3cccc4[nH]cc(c34)C[C@H]21` [Pergolide methanesulfonate], the inhibition at 5 µM [14] was 0.241%, the inhibition at 5 µM [15] was 0.0285% and the inhibition at 5 µM [16] was 0.454%.

Work on `O=C(O)[C@@H]1CCN1` [L-azetidine-2-carboxylic acid] yielded an inhibition at 5 µM [14] of -0.00926%, an inhibition at 5 µM [15] of -0.0704% and an inhibition at 5 µM [16] of 0.0519%.
